Reference: US20230416672A1, “Rhodococcus qingshengii bacterial strain that degrades imazethapyr and stimulates crop growth” (priority 2020, published 2023)

Tests used:
[1] = tested on: soft wheat (Triticum aestivum L.) variety Favorite; assay: Growth of soft wheat in soil artificially contaminated with imazethapyr (Example 2); assay type: in vivo; conditions: imazethapyr 10 mg/kg soil (Viaduk VK), without bacterization, 25 days
Description: (§1) The soil in the experiment was artificially polluted with the herbicide preparation “Viaduk VK” (Active substance: imazethapyr, 100 g/L), introducing the drug with water for irrigation at a dosage, according to the instructions, to a final concentration of imazethapyr 10 mg/kg of soil. The soil was moistened to 50% of the total moisture capacity. Seeds of soft wheat (Triticum aestivum L.) varieties “Favorite” 20 pcs. were sown in 1-liter pots containing 1 kg of soil. […]
(§2) The experiment was carried out under controlled conditions: at a temperature of 24/20° C., a light regime of 14/10 h (illumination—8000 lux), day/night, respectively, maintaining soil moisture at a level of 50% of the total moisture capacity by irrigation with settled tap water, the need for which was determined by weighing vessels. […] They were dried with filter paper, the length of roots and shoots was measured, they were separated and dried to constant weight at 65° C. […] The content of imazethapyr in soil was determined as described previously (Assalin M. R., Queiroz S. C. N., Ferracini V. L., Oliveira T., Vilhena E., Mattos M. L. T. A method for determination of imazapic and imazethapyr residues in soil using an ultrasonic assisted extraction and LC-MS/MS//Bull. Environ. Contam. Toxicol.—2014.—Vol. 93.—P. 360-364) using HPLC. […]

[2] = Imazethapyr content in soil in laboratory experiment (Example 2, HPLC); conditions: end of experiment (47 days), original contaminated soil 6.17
Description: as §1, §2

For `CCc1cnc(C2=NC(C)(C(C)C)C(=O)N2)c(C(=O)O)c1` (stereo not drawn) [imazethapyr], the “growth of wheat plants in freshly contaminated soil” value [1] was “strong inhibition”, the Imazethapyr content ([2]; soil with wheat) was 5.90 mg/kg and the Imazethapyr content ([2]; soil without plants) was 5.87 mg/kg.
